Experimental data from ChEMBL document CHEMBL1201862, “PubChem BioAssay data set” (2004).
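Tested at 5 concentrations; 48 h exposure; 96-well plates; endpoints linearly interpolated, else capped at highest concentration. GI50 marks 50% less growth.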 Calls of active or inactive are those of the source. Cut-off read from the data, not from the text of the source: active = GI50 up to about 1.1 µM and inactive = higher.

Assays:
Assay in all cases: NCI anticancer screen, dose series, 48 h
OVCAR-8 = tested on: OVCAR-8
HT-29 = tested on: HT-29
NCI/ADR-RES = tested on: NCI/ADR-RES
HOP-62 = tested on: HOP-62
A498 = tested on: A498
OVCAR-3 = tested on: OVCAR-3
786-0 = tested on: 786-0
U-251 = tested on: U-251
COLO 205 = tested on: COLO 205
HCC 2998 = tested on: HCC 2998
HCT-116 = tested on: HCT-116
UACC-257 = tested on: UACC-257
SK-MEL-28 = tested on: SK-MEL-28
IGROV-1 = tested on: IGROV-1
MDA-N = tested on: MDA-N
SF-539 = tested on: SF-539
UO-31 = tested on: UO-31
CCRF-CEM = tested on: CCRF-CEM
SK-MEL-5 = tested on: SK-MEL-5
SNB-75 = tested on: SNB-75

| Structure (SMILES) | GI50 (OVCAR-8) | GI50 (HT-29) | GI50 (NCI/ADR-RES) | GI50 (HOP-62) | GI50 (A498) | GI50 (OVCAR-3) | GI50 (786-0) | GI50 (U-251) | GI50 (COLO 205) | GI50 (HCC 2998) | GI50 (HCT-116) | GI50 (UACC-257) | GI50 (SK-MEL-28) | GI50 (IGROV-1) | GI50 (MDA-N) | GI50 (SF-539) | GI50 (UO-31) | GI50 (CCRF-CEM) | GI50 (SK-MEL-5) | GI50 (SNB-75) |
| --- | --- | --- | --- | --- | --- | --- | --- | --- | --- | --- | --- | --- | --- | --- | --- | --- | --- | --- | --- | --- |
| O=C(CCCCCCC(=O)Nc1cccnc1)NO [PYROXAMIDE] | 1.78 µM (inactive) | 3.14 µM (inactive) | 1.81 µM (inactive) | 7.16 µM (inactive) | 11 µM (inactive) | 2.86 µM (inactive) | 7.21 µM (inactive) | 4.76 µM (inactive) | 2.77 µM (inactive) | 4.61 µM (inactive) | 3.54 µM (inactive) | 4.75 µM (inactive) | 4.4 µM (inactive) | 14.7 µM (inactive) | 2.62 µM (inactive) | 3.09 µM (inactive) | 6.5 µM (inactive) | 1.31 µM (inactive) | 1.21 µM (inactive) | 18.1 µM (inactive) |
| CN(CCCNC(=O)c1nn(-c2ccc(Cl)cc2Cl)c2c1Cc1ccccc1-2)CCCNC(=O)c1nn(-c2ccc(Cl)cc2Cl)c2c1Cc1ccccc1-2 | 1.81 µM (inactive) | 1.73 µM (inactive) | 1.87 µM (inactive) | 1.72 µM (inactive) | 1.71 µM (inactive) | 1.73 µM (inactive) | 1.67 µM (inactive) | 1.79 µM (inactive) | 1.83 µM (inactive) | 1.64 µM (inactive) | 1.7 µM (inactive) | 1.81 µM (inactive) | 1.69 µM (inactive) | 1.76 µM (inactive) | 1.7 µM (inactive) | 1.19 µM (inactive) | 1.82 µM (inactive) | 0.993 µM (active) | 1.68 µM (inactive) | 1.55 µM (inactive) |
| COc1c(OC(C)C)c(OC(C)C)c2oc(=O)n3c2c1C(c1ccccc1-n1c(C)ccc1C)C=C3 (stereo not given) | 35.3 µM (inactive) | 12.6 µM (inactive) | 33.6 µM (inactive) | 30.5 µM (inactive) | 92.5 µM (inactive) | > 100 µM (inactive) | 80.7 µM (inactive) | > 100 µM (inactive) | > 100 µM (inactive) | 37.9 µM (inactive) | 16.7 µM (inactive) | 45 µM (inactive) | 37.8 µM (inactive) | 39.9 µM (inactive) | 29.2 µM (inactive) | 67.5 µM (inactive) | 36.1 µM (inactive) | 71.9 µM (inactive) | 98.4 µM (inactive) | 41.8 µM (inactive) |
| CSc1nc(C)c2c(n1)N(c1ccc(Cl)cc1)CC2 | > 100 µM (inactive) | > 100 µM (inactive) | > 100 µM (inactive) | > 100 µM (inactive) | > 100 µM (inactive) | > 100 µM (inactive) | 77.1 µM (inactive) | > 100 µM (inactive) | > 100 µM (inactive) | > 100 µM (inactive) | > 100 µM (inactive) | > 100 µM (inactive) | > 100 µM (inactive) | > 100 µM (inactive) | > 100 µM (inactive) | 70.8 µM (inactive) | 0.342 µM (active) | > 100 µM (inactive) | > 100 µM (inactive) | 0.0946 µM (active) |
| COC(=O)NC(Nc1ccc(Cl)cc1Cl)(C(F)(F)F)C(F)(F)F | 70.8 µM (inactive) | > 100 µM (inactive) | 86.5 µM (inactive) | > 100 µM (inactive) | 33.2 µM (inactive) | 79.6 µM (inactive) | > 100 µM (inactive) | 54.1 µM (inactive) | 28.2 µM (inactive) | 45.7 µM (inactive) | 64.7 µM (inactive) | > 100 µM (inactive) | > 100 µM (inactive) | 61.7 µM (inactive) | 34.7 µM (inactive) | 49 µM (inactive) | 18 µM (inactive) | 28.5 µM (inactive) | 26.7 µM (inactive) | > 100 µM (inactive) |
